According to US20260035382A1, “COMPOUNDS AS SUMO ACTIVATING ENZYME INHIBITORS” (WIGEN BIOMEDICINE TECHNOLOGY (SHANGHAI) CO., LTD., priority 2022, published 2026):

These molecules were tested against SAE (Homo sapiens (Human), UniProt Q9UBT2) (assay: In vitro inhibitory activity assay against SAE (SUMO-2/3 immunofluorescence in HCT116 cells)). Details: 6 h incubation, class symbols, read-out: SUMO IF IC50.
Sequence of SAE (Q9UBT2 whole entry): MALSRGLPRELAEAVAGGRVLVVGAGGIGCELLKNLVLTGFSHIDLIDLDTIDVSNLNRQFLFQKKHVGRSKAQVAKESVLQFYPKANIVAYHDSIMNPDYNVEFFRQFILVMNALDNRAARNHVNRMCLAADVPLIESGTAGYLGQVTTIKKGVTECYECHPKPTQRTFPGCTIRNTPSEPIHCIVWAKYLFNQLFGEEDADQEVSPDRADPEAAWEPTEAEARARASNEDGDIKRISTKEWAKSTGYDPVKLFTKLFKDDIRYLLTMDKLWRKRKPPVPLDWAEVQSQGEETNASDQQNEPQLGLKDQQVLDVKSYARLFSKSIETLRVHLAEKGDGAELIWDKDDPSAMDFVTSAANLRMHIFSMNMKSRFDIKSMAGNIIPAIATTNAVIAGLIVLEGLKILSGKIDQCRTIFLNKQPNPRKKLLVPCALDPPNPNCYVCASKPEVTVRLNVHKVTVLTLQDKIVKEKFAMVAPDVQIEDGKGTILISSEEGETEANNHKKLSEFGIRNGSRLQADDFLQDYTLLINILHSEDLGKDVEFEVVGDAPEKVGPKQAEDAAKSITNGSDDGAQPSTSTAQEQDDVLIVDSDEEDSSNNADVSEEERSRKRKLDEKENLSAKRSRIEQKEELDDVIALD
Sequence of SAE (Q9UBE0 whole entry partner): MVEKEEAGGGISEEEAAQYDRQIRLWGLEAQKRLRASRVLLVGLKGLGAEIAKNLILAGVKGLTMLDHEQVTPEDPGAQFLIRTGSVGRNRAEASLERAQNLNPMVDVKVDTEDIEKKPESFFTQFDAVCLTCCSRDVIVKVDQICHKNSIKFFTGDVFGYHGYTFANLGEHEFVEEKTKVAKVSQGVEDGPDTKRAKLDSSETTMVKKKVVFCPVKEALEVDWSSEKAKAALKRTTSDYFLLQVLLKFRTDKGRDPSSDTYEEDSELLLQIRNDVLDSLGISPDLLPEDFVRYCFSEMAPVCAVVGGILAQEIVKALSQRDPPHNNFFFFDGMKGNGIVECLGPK
Format: cell-based
In short: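 HCT116 cells treated with compounds for 6 h at 37 °C, then fixed, permeabilized and immunostained for SUMO-2/3 with FITC secondary detection. Fluorescence compared with DMSO control to give inhibition rate and IC50.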
CN1Cc2sc(C(=O)c3cncnc3N[C@@H]3C[C@H](COS(N)(=O)=O)[C@@H](O)C3)cc2[C@]2(C1)OCCc1ccc(Cl)cc12 [Compound 261] gave an IC50 of at most 50 nM. In the case of NS(=O)(=O)OC[C@H]1C[C@@H](Nc2ncncc2C(=O)c2cc3c(s2)CCC[C@]32NCCc3ccc(C(F)(F)F)cc32)C[C@@H]1O [Compound 205], the IC50 is reported as 50 to 200 nM. Work on NS(=O)(=O)CC[C@H]1C[C@@H](Nc2ncncc2C(=O)c2cc3c(s2)CCCC32NCCc3ccc(Cl)nc32)C[C@@H]1O (some centres unmarked) [Compound 136] yielded an IC50 of at most 50 nM. Molecule NS(=O)(=O)OC[C@H]1C[C@@H](Nc2ncncc2C(=O)c2cc3c(s2)CSCC32NCCc3ccccc32)C[C@@H]1O (some centres unmarked) [Compound 85] has an IC50 of over 200 nM. For NS(=O)(=O)OC[C@H]1C[C@@H](Nc2ncncc2C(=O)c2cc3c(s2)C=C[C@@]32OCCc3ccc(F)cc32)C[C@@H]1O [Compound 293], the IC50 was over 200 nM. NS(=O)(=O)OC[C@H]1C[C@@H](Nc2ncncc2C(=O)c2cc3c(s2)C=CC32OCCc3ccc(F)cc32)C[C@@H]1O (some centres unmarked) [Compound 292] showed an IC50 of 50 to 200 nM. With C#Cc1ccc2c(c1)[C@@]1(CCCc3sc(C(=O)c4cncnc4N[C@@H]4C[C@H](COS(N)(=O)=O)[C@@H](O)C4)cc31)NCC2 [Compound 204] the IC50 was 50 to 200 nM. NS(=O)(=O)OC[C@H]1C[C@@H](Nc2ncncc2C(=O)c2cc3c(s2)OCC[C@]32NCCc3ccc(Cl)cc32)C[C@@H]1O [Compound 218] showed an IC50 of 50 to 200 nM. Molecule NS(=O)(=O)OC[C@H]1C[C@@H](Nc2ncncc2C(=O)c2cc3c(s2)C=C[C@]32NCCc3ccc(F)cc32)C[C@@H]1O [Compound 178] has an IC50 of at most 50 nM. NS(=O)(=O)OC[C@H]1C[C@@H](Nc2ncncc2C(=O)c2cc3c(s2)CCC32NC3(CC3)Cc3ccc(Cl)cc32)C[C@@H]1O (some centres unmarked) [Compound 82] was tested, and the IC50 was 50 to 200 nM. NS(=O)(=O)OC[C@H]1C[C@@H](Nc2ncncc2C(=O)c2cc3c(s2)COCC32NCCc3ccc(Cl)c(F)c32)C[C@@H]1O (some centres unmarked) [Compound 103] was tested, and the IC50 was 50 to 200 nM. For NS(=O)(=O)OC[C@H]1C[C@@H](Nc2ncncc2C(=O)c2cc3c(s2)CCCC32NCCc3cc(Cl)ncc32)C[C@@H]1O (some centres unmarked) [Compound 35], the IC50 was 50 to 200 nM. For CCN1Cc2sc(C(=O)c3cncnc3N[C@@H]3C[C@H](COS(N)(=O)=O)[C@@H](O)C3)cc2C2(C1)OCCc1ccc(Cl)cc12 (some centres unmarked) [Compound 265], the IC50 was at most 50 nM. For NS(=O)(=O)OC[C@H]1C[C@@H](Nc2ncncc2C(=O)c2cc3c(s2)CC[C@]32NCCc3cc(Cl)ncc32)C[C@@H]1O [Compound 236], the IC50 was 50 to 200 nM. For NS(=O)(=O)OC[C@H]1C[C@@H](Nc2ncncc2C(=O)c2cc3c(s2)C(F)(F)C[C@]32NCCc3ccc(Cl)cc32)C[C@@H]1O [Compound 162], the IC50 was 50 to 200 nM. CC1=CC2(NCCc3ccc(Cl)cc32)c2cc(C(=O)c3cncnc3N[C@@H]3C[C@H](COS(N)(=O)=O)[C@@H](O)C3)sc21 (some centres unmarked) [Compound 157] showed an IC50 of 50 to 200 nM. With NS(=O)(=O)OC[C@H]1C[C@@H](Nc2ncncc2C(=O)c2cc3c(s2)COCC32NCCc3cc(Cl)c(Cl)cc32)C[C@@H]1O (some centres unmarked) [Compound 97] the IC50 was 50 to 200 nM. In the case of NS(=O)(=O)OC[C@H]1C[C@@H](Nc2ncncc2C(=O)c2cc3c(s2)CCC[C@]32OCCc3ccccc32)C[C@@H]1O [Compound 246], the IC50 is reported as 50 to 200 nM. In the case of NS(=O)(=O)OC[C@H]1C[C@@H](Nc2ncncc2C(=O)c2cc3c(s2)COC[C@]32NCCc3ccc(Cl)c(Cl)c32)C[C@@H]1O [Compound 96], the IC50 is reported as 50 to 200 nM. Work on CN1CCc2ccc(Cl)cc2[C@@]12CCCc1sc(C(=O)c3cncnc3N[C@@H]3C[C@H](COS(N)(=O)=O)[C@@H](O)C3)cc12 [Compound 132] yielded an IC50 of 50 to 200 nM. CC(C)N1Cc2sc(C(=O)c3cncnc3N[C@@H]3C[C@H](COS(N)(=O)=O)[C@@H](O)C3)cc2[C@@]2(C1)OCCc1ccc(F)cc12 [Compound 269] showed an IC50 of over 200 nM.

Same assay, conditions: 6 h incubation, numeric values, read-out: SUMO IF IC50
In the case of NS(=O)(=O)OC[C@H]1C[C@@H](Nc2ncncc2C(=O)c2cc3c(s2)C=C[C@]32NCCc3ccc(Cl)cc32)C[C@@H]1O [Compound 176], the IC50 is reported as 23.2 nM. For NS(=O)(=O)OC[C@H]1C[C@@H](Nc2ncncc2C(=O)c2cc3c(s2)CN(C2CC2)C[C@@]32NCCc3ccc(Cl)cc32)C[C@@H]1O [Compound 116], the IC50 was over 1000 nM.
